System: Kornkäfer (sitophilus granarius L)
Experiment: whole plant or invertebrate
Assay type: in vivo
Conditions: for mortality at 1000 µg/mL / mortality at 100 µg/mL: Sitophilus granarius; for mortality at 1000 µg/mL: read-out: Wirksamkeit in % Substanz allein; for Synergistischer Faktor bei Talcord: amine 1 mg/ml + Talcord 0,01 mg/ml; for % Wirkung Substanz +Ripcord / % Wirkung Substanz +Talcord: Pyrethroid : Amin 1 : 10, amine 0,1 mg/ml, 180 min; for mortality at 100 µg/mL: amine 0,1 mg/ml (as for Pyrethroid : Amin 1 : 10), read-out: % Wirkung Substanz allein
Experimental: Test von tertiären, heterocyclischen Aminen allein und im Gemisch mit Pyrethroiden an Kornkäfern (sitophilus granarius L)
In Petrischalen mit 15 cm Durchmesser mit talcumbepuderten Seitenwänden, um das Entfliehen der Kornkäfer zu verhindern, wurden jeweils 2 ml der Acetonlösungen einpipettiert und durch vorsichtiges Schwenken der Schalen gleichmäßig auf dem Boden verteilt. Nach dem Abdampfen des Acetons und dem Antrocknen der Beläge wurden in jede Schale 25 Kornkäfer eingezählt. Nach einer Stunde wurde jeweils ein 12,5 cm Rundfilter in die Schalen eingelegt, um den Käfern das Befreien aus der Rückenlage zu ermöglichen, was auf der glatten Glasplatte nicht möglich ist. Die lichtscheuen Käfer verkrochen sich mit Vorliebe unter die Filter und blieben so ständig mit den Wirkstoffbelägen in Kontakt. Alle Versuche liefen mit 3 Wiederholungen. Nach 3 h wurden die toten Käfer ausgezählt.
In der Tabelle 3 ist jeweils der Durchschnitt der Summe der 4 Einzelwerte angegeben. 25 tote Kornkäfer entsprechen dabei einer Wirkung von 100 %. Die Temperaturen betrugen während der Tests im Durchschnitt 19 - 21°C. Der synergistische Faktor berechnet sich analog wie in Beispiel 1 angegeben.
Die zu prüfenden tertiären, heterocyclischen Amine wurden - mit 1 mg Wirkstoff pro ml als Acetonlösungen angesetzt. Sie wurden im Verhältnis 1 : 1 mit Ripcord bzw. Talcord, die mit 0,01 mg Wirkstoff pro ml als Acetonlösung vorlagen, gemischt. Die Einzelkomponenten wurden im Verhältnis 1 : 1 mit Aceton gemischt.
Auch bei diesen Versuchen zeigten die Kontrollversuche stets bei Versuchsende eine Mortalität der Kornkäfer von 0 %.
Die synergistische Wirkung der tertiären, heterocyclischen Amine auf die Pyrethroide ist auch dann noch deutlich, wenn das Amin in wesentlich niederen Aufwandmengen eingesetzt wird, als dies in Beispiel 3 beschrieben wurde. Die Ergebnisse sind in der Tabelle 4 zusammengestellt. Dieser Versuch zeigt auch, daß Amine mit insektiziden Eigenschaften, wenn sie in Konzentrationen unterhalb ihres insektiziden Wirkungsbereiches eingesetzt werden, immer noch gute synergistische Wirkungen im Gemisch mit Pyrethroiden zeigen. Die Versuche wurden wie im Beispiel 3 beschrieben mit Kornkäfern durchgeführt. Es wurden lediglich die Konzentrationen der eingesetzten tertiären, heterocyclischen Amine geändert. Für die Verdünnung Pyrethroid : Amin = 1 : 10 wurde das Amin mit 0,1 mg Wirkstoff/ml Acetonlösung eingesetzt. Für die Verdünnung 1 : 5 mit 0,05 mg Wirkstoff/ml.

[1] = amine 1 mg/ml in Aceton mixed 1 : 1 with Aceton, 2 ml per dish, 25 weevils, dead counted after 3 h
[2] = amine 1 mg/ml + Ripcord 0,01 mg/ml
[3] = amine 1 mg/ml mixed 1 : 1 with Ripcord 0,01 mg/ml, 3 h
[4] = amine 1 mg/ml mixed 1 : 1 with Talcord 0,01 mg/ml, 3 h
[5] = sitophilus granarius, in vivo, 3 h

Compound | mortality at 1000 µg/mL [1] | Synergistischer Faktor bei Ripcord [2] | Synergistischer Faktor bei Talcord | Wirksamkeit in % Substanz +Ripcord [3] | Wirksamkeit in % Substanz +Talcord [4] | Wirksamkeit in % Substanz allein [1] | % Wirkung Substanz +Ripcord | % Wirkung Substanz +Talcord | mortality at 100 µg/mL (3 h) | Synergistischer Faktor bei Ripcord (in vivo) | Wirksamkeit in % Substanz +Ripcord [5] | Wirksamkeit in % Substanz +Talcord [5] | Wirksamkeit in % Substanz allein [5]
c1cc2c(cc1CN1CCCCCC1)OCO2 [N-Piperonyl-hexamethylenimin] | 0% | 3,05 | 7,01 | 96,0% | 68,0% | – | – | – | – | – | – | – | –
CCCCCCCCN1CCCC1 [N-1-Octyl-pyrrolidin] | 0% | 1,78 | 4,12 | 56,0% | 40,0% | – | – | – | – | – | – | – | –
CCCCCCCCCCCCN1CCCCC1 [N-1-Dodecyl-piperidin] | 24% | 2,24 | – | 94,6% | – | – | – | – | – | – | – | – | –
c1ccc(COCCN2CCOCC2)cc1 [N-(2-Benzyloxi-ethyl-(1))-morpholin] | – | 1,61 | 3,30 | 50,8% | 32,0% | 0% | – | – | – | – | – | – | –
C=CC(C)(CCC=C(C)C)N1CCCCCC1 (stereo not drawn) [6-N-Hexamethylenimino-2,6-dimethyl-octadien-(2,7)] | – | 2,41 | 7,30 | 76,0% | 70,8% | 0% | – | – | – | – | – | – | –
C#CCN1CCCC1 [3-N-pyrrolidino-propin] | – | 1,61 | 1,52 | 50,8% | 14,8% | 0% | – | – | – | – | – | – | –
C(CCCCN1CCCC1)CCCN1CCCC1 [1,8-N,N-Di-pyrrolidino-octan] | – | 2,79 | 6,60 | 88,0% | 64,0% | 0% | – | – | – | – | – | – | –
CCOC(=O)C(c1ccccc1)C(C(=O)OCC)N1CCCC1 (stereo not drawn) [Phenyl-N-pyrrolidin-bern-steinsäure-diethylester] | – | 2,79 | 2,76 | 88,0% | 26,8% | 0% | – | – | – | – | – | – | –
CCCCCN1CCCC1 [N-1-Pentyl-pyrrolidin] | 0% | 2,37 | 10,3 | 74,8% | 100,0% | – | – | – | – | – | – | – | –
c1ccc(C(c2ccccc2)N2CCOCC2)cc1 [N-Diphenyl-methyl-morpholin] | – | 2,29 | 4,12 | 72,0% | 40,0% | 0% | – | – | – | – | – | – | –
CCCCCCCCCCCCN1CCCCCC1 [N-1-Dodecyl-hexamethylenimin] | 14% | 1,59 | 1,03 | 64,0% | 24,0% | – | – | – | – | – | – | – | –
c1ccc(CN2CCCCC2)cc1 [N-Benzyl-piperidin] | 0% | – | – | 94,8% | 32,0% | – | 100,0% | 73,2% | 0% | – | – | – | –
c1ccc(OCCN2CCCCC2)cc1 [N-2-Phenoxi-ethyl-(1)-piperidin] | – | 2,54 | 6,60 | 84,0% | 68,0% | 4,0% | – | – | – | – | – | – | –
CCCCC(CC)CN1CCCC1 (stereo not drawn) [N-1-(2-Ethyl)-hexyl-pyrrolidin] | – | 1,78 | 4,24 | 56,0% | 41,2% | 0% | – | – | – | – | – | – | –
CCCCCCCCCC(C)N1CCCC1 (stereo not drawn) [N-2-Undecyl-pyrrolidin] | 56% | 1,36 | – | 98,8% | 64,0% | – | – | – | – | – | – | – | –
CCCCCCCCCCCN1CCCCCC1 [N-1-Undecyl-hexamethylenimin] | 0% | – | – | 73,1% | 81,2% | – | 92,0% | 73,2% | 0% | – | – | – | –
CCCCCCCCCN1CCCCCC1 [N-1-Nonyl-hexamethylenimin] | 40% | 1,82 | 4,54 | 97,2% | 84,0% | – | – | – | – | – | – | – | –
c1ccc(OCCN2CCCC2)cc1 [N-1-2-phenoxiethyl-pyrrolidin] | – | 1,69 | 2,88 | 53,2% | 28,0% | 0% | – | – | – | – | – | – | –
CCCCCCCCCCCCCCN1CCCC1 [N-1-Tetradecyl-pyrrolidin] | 0% | 1,59 | – | 50,0% | 6,0% | – | – | – | – | – | – | – | –
C(CCCCCN1CCCCC1)CCCCN1CCCCC1 [1,10-N,N-Di-piperidino-decan] | – | 2,41 | 6,06 | 76,0% | 58,8% | 0% | – | – | – | – | – | – | –
N-Lactosido-pyrrolidin | – | 2,70 | 2,06 | 85,2% | 20,0% | 0% | – | – | – | – | – | – | –
CCC(CC)N1CCCC1 [Pentyl-(3)-N-pyrrolidin] | – | 2,67 | 4,82 | 84,0% | 46,8% | 0% | – | – | – | – | – | – | –
OCC(CO)(CO)CN1CCCCC1 [N-Piperidino-pentaerythrit] | – | 1,99 | 3,30 | 62,8% | 32,0% | 0% | – | – | – | – | – | – | –
CCC/C=C(\CC)CN1CCCC1 [cis-3-N-pyrrolidino-methyl-hepten-(3)] | – | 1,61 | 1,65 | 50,8% | 16,0% | 0% | – | – | – | – | – | – | –
CCOC(=O)CCN1CCOCC1 [N-Morpholino-propionsäure-ethylester] | – | 2,07 | 2,76 | 65,2% | 26,8% | 0% | – | – | – | – | – | – | –
O=C(OCc1ccccc1)C(c1ccccc1)N1CCCCC1 (stereo not drawn) [Phenyl-N-piperidino-essig-säure-benzylester] | – | 3,05 | 2,89 | 96,0% | 28,0% | 0% | – | – | – | – | – | – | –
CCCCOCCOCCN1CCCC1 [N-1-(2'-Butoxi-diethyl-ether-(2))-pyrrolidin] | – | – | – | – | – | – | – | – | – | 2,47 | 78,0% | 8,9% | 0%
CCCCCCCCCCCCN1CCCCC1C (stereo not drawn) [N-1-Dodecyl-2-methyl-piperidin] | 0% | 1,49 | 2,06 | 46,8% | 20,0% | – | – | – | – | – | – | – | –
CCCCCCCCCCCCCCCCN1CCCCC1CC (stereo not drawn) [N-1-Hexadecyl-2-ethyl-piperidin] | 0% | 2,37 | 1,94 | 74,8% | 18,8% | – | – | – | – | – | – | – | –
CCC1CCCCN1Cc1ccccc1 (stereo not drawn) [N-Benzyl-2-ethyl-piperidin] | 0% | 2,50 | 1,53 | 78,8% | 14,8% | – | – | – | – | – | – | – | –

— patent EP0029617A1, “Use of tertiary heterocyclic amines as synergists in pesticides; derivatives of cycloamines” (priority 1979, dated 1981)
